Laboratory results: paper PMC6270026, “Antibacterial and Herbicidal Activity of Ring-Substituted 2-Hydroxynaphthalene-1-carboxanilides” (Molecules, 2013)
In brackets after ≈: the same amount, converted by molar mass. Read-outs that look alike come from different tables or passages of the source.

Key:
[1] = parameters: method as in PMID 23884130; settings: 3-hydroxynaphthalene-2-carboxanilide series; cited from earlier work
[2] = test system: Mycobacterium marinum CAMP 5644; experiment: In vitro antimycobacterial evaluation (broth dilution MIC); type: cell-based; settings: for MIC: Mycobacterium marinum, CAMP5644, 504 h, M. marinum CAMP 5644, 21 days, 28 °C
[3] = test system: human monocytic leukemia THP-1 cells; experiment: In vitro cytotoxicity assay (LDH); type: cell-based; settings: treatment with 20 µmol/L, 24 h
Experimental: Human monocytic leukemia THP-1 cells were obtained from the European Collection of Cell Cultures (ECACC, Salisbury, UK; Methods of characterization: DNA Fingerprinting (Multilocus probes) and isoenzyme analysis). These cells were routinely cultured in RPMI 1640 (Lonza, Verviers, Belgium) medium supplemented with 10% fetal bovine serum (FBS, Sigma-Aldrich), 2% L-glutamine, 1% penicillin and streptomycin (Lonza, Verviers, Belgium) at 37 °C with 5% CO2. Cells were passaged at approximately 1 week intervals. Cells were routinely tested for the absence of mycoplasma (Hoechst 33258 staining method). The tested compounds were dissolved in DMSO (Sigma-Aldrich) and added in five increasing concentrations to the cell suspension in the culture medium. The maximum concentration of DMSO in the assays never exceeded 0.1%. Subsequently, the cells were incubated for 24 h at 37 °C with 5% CO2 to various compound concentrations ranging from 0.37 to 20 μmol/L in RPMI 1640 medium. Cell toxicity was determined using a Cytotoxicity Detection Kit^PLUS Lactate dehydrogenase (LDH) assay kit (Roche Diagnostics, Mannheim, Germany) according to the manufacturer’s instructions, as described previously. […] All data were evaluated using GraphPad Prism 5.00 software (GraphPad Software, San Diego, CA, USA).

[4] = Lipophilicity determination by RP-HPLC (capacity factor log k); type: physicochemical; settings: isocratic, MeOH 60%/H2O 40%, C18
Experimental: A HPLC system Agilent 1200 equipped with DAD detector (Agilent, Santa Clara, CA, USA) was used. A chromatographic column Symmetry® C18 5 μm, 4.6 × 250 mm, Part No. WAT054275, (Waters Corp., Milford, MA, USA) was used. The HPLC separation process was monitored and evaluated by EZChrom Elite software ver. 3.3.2 (Agilent). Isocratic elution by a mixture of MeOH p.a. (60%) and H2O-HPLC Mili-Q grade (40%) as a mobile phase was used. The total flow of the column was 1.0 mL/min, injection 20 μL, column temperature 40 °C and sample temperature 10 °C. The detection wavelength 210 nm was chosen. The KI methanolic solution was used for the dead time (tD) determination. Retention times (tR) were measured in minutes. The capacity factors k were calculated according to formula k = (tR − tD)/tD, where tR is the retention time of the solute, whereas tD denotes the dead time obtained using an unretained analyte. Log k, calculated from the capacity factor k, is used as the lipophilicity index converted to log P scale.

[5] = test system: spinach chloroplasts (photosystem II); experiment: Chlorophyll a and aromatic amino acids fluorescence in spinach chloroplasts; type: biochemical, Spinacia oleracea L.
Experimental: The fluorescence emission spectra of chlorophyll a (Chla) and aromatic amino acids (AAA) in spinach chloroplasts were recorded on fluorescence spectrophotometer F-2000 (Hitachi, Tokyo, Japan) using excitation wavelength λex = 436 nm for monitoring fluorescence of Chla and λex = 275 nm for monitoring AAA fluorescence, excitation slit 20 nm and emission slit 10 nm. The samples were kept in the dark for 2 min before measuring. The phosphate buffer used for dilution of the chloroplast suspension was the same as described above. Due to low aqueous solubility the compounds were added to chloroplast suspension in DMSO solution. The DMSO concentration in all samples was the same as in the control (10%). The chlorophyll concentration in chloroplast suspension was 10 mg/L.

M. smegmatis ATCC 700084 = experiment: In vitro antimycobacterial evaluation (broth dilution MIC); type: cell-based, Mycobacterium smegmatis; settings: Mycolicibacterium smegmatis, ATCC700084, 72 h; M. smegmatis ATCC 700084, 3 days, 37 °C
[6] = test system: Mycobacterium avium subsp. paratuberculosis (CIT03); experiment: In vitro antimycobacterial evaluation (alamarBlue MIC); type: cell-based; settings: 264 h, M. avium paratuberculosis CIT03, 11 days, 37 °C
Experimental: A well characterised clinical isolate of Mycobacterium avium subsp. paratuberculosis (CIT03) was grown in Middlebrook broth (MB), supplemented with Oleic-Albumin-Dextrose-Catalase supplement (OADC, Becton, Dickinson & Comp., Franklin Lakes, NJ, USA) and mycobactin J (2 µg/mL). Identification of this isolate was performed using biochemical and molecular protocols. At log phase growth, a culture sample (10 mL) was centrifuged at 15,000 rpm/20 min using a bench top centrifuge (Model CR 4-12, Jouan Inc., Winchester, VA, USA). Following removal of the supernatant, the pellet was washed in fresh Middlebrook 7H9GC broth and re-suspended in fresh supplemented MB (10 mL). The turbidity was adjusted to match McFarland standard No. 1 (3 × 10^8 cfu) with MB broth. A further 1:20 dilution of the culture was then performed in MB broth. The antimicrobial susceptibility of the mycobacterial species was investigated in a 96-well plate format. In these experiments, sterile deionised water (300 µL) was added to all outer-perimeter wells of the plates to minimize evaporation of the medium in the test wells during incubation. Each evaluated compound (100 µL) was incubated with each of the mycobacterial species (100 µL). Dilutions of each compound were prepared in duplicate. For all synthesized compounds, final concentrations ranged from 1,000 µg/mL to 8 µg/mL. All compounds were prepared in DMSO and subsequent dilutions were made in supplemented MB. The plates were sealed with parafilm and incubated at 37 °C, for 11 days in the case of M. avium paratuberculosis. Following incubation, a 10% addition of alamarBlue (AbD Serotec, Kidlington, UK) was mixed into each well and readings at 570 nm and 600 nm were taken, initially for background subtraction and subsequently after 24 h re-incubation. The background subtraction is necessary for strongly coloured compounds, where the colour may interfere with the interpretation of any colour change. For non-interfering compounds, a blue colour in the well was interpreted as an absence of growth and a pink colour was scored as growth. The minimum inhibitory concentrations (MICs) were initially defined as the lowest concentration which prevented a visual colour change from blue to pink.
The MICs were defined as the lowest concentration of the compound at which no visible bacterial growth was observed. The MIC value is routinely and widely used in bacterial assays and is a standard detection limit according to the Clinical and Laboratory Standards Institute (CLSI). Isoniazid (Sigma-Aldrich) was used as reference antimycobacterial drug.

M. kansasii DSM 44162 = experiment: In vitro antimycobacterial evaluation (broth dilution MIC); type: cell-based; settings: Mycobacterium kansasii, DSM44162, 168 h; M. kansasii DSM 44162, 7 days, 37 °C
[7] = test system: photosynthetic electron transport (PET) in spinach chloroplasts; experiment: Inhibition of photosynthetic electron transport (PET) in spinach chloroplasts; type: biochemical, Spinacia oleracea L.; settings: DCPIP photoreduction
Experimental: Chloroplasts were prepared from spinach (Spinacia oleracea L.) according to Masarovicova and Kralova. The inhibition of photosynthetic electron transport (PET) in spinach chloroplasts was determined spectrophotometrically (Genesys 6, Thermo Electron Scientific Instruments, Madison, WI, USA), using an artificial electron acceptor 2,6-dichlorophenol-indophenol (DCPIP) according to Kralova et al., and the rate of photosynthetic electron transport was monitored as a photoreduction of DCPIP. The measurements were carried out in phosphate buffer (0.02 mol/L, pH 7.2) containing sucrose (0.4 mol/L), MgCl2 (0.005 mol/L) and NaCl (0.015 mol/L). The chlorophyll content was 30 mg/L in these experiments and the samples were irradiated (~100 W/m^2 with 10 cm distance) with a halogen lamp (250 W) using a 4 cm water filter to prevent warming of the samples (suspension temperature 22 °C). The studied compounds were dissolved in DMSO due to their limited water solubility. […] The inhibitory efficiency of the studied compounds was expressed by IC50 values, i.e., by molar concentration of the compounds causing 50% decrease in the oxygen evolution rate relative to the untreated control.

[8] = test system: Staphylococcus aureus ATCC 29213; experiment: In vitro antibacterial susceptibility testing (broth dilution MIC); type: cell-based; settings: ATCC29213; Staphylococcus aureus ATCC 29213, 24 h, 37 °C
Experimental: (§1) The synthesized compounds were evaluated for in vitro antibacterial activity against representatives of multidrug-resistant bacteria, clinical isolates of methicillin-resistant Staphylococcus aureus (MRSA) 63718, SA 630 and SA 3202 that were obtained from the National Institute of Public Health, Prague, Czech Republic. Staphylococcus aureus ATCC 29213 was used as a reference and quality control strain. Ampicillin (Sigma-Aldrich) was used as the standard. Prior to testing, each strain was passaged onto nutrient agar (Oxoid, Hampshire, UK) with 5% of bovine blood, and bacterial inocula were prepared by suspending a small portion of bacterial colony in sterile phosphate buffered saline (pH 7.2–7.3). The cell density was adjusted to 0.5 McFarland units using a densitometer (Densi-La-Meter, LIAP, Riga, Latvia). The final inoculum was made by 1:20 dilution of the suspension with the Mueller-Hinton broth (MH broth). […] The final concentrations of the evaluated compounds ranging from 256 μg/mL to 0.008 μg/mL. The broth dilution micro-method modified according to NCCLS guidelines in MH broth was used to determine the minimum inhibitory concentration (MIC). Drug-free controls, sterility controls and controls consisted of MH broth and DMSO alone were included. The determination of results was performed visually after 24 h of static incubation in the darkness at 37 °C in an aerobic atmosphere. The MICs were defined as the lowest concentration of the compound at which no visible bacterial growth was observed.

[9] = test system: methicillin-resistant Staphylococcus aureus SA 630; experiment: as above; type: cell-based; settings: MRSA, clinical isolate SA 630, 24 h, 37 °C
Experimental: as §1

[10] = test system: methicillin-resistant Staphylococcus aureus SA 3202; experiment: as above; type: cell-based; settings: MRSA, clinical isolate SA 3202, 24 h, 37 °C, read-out: MIC MRSA 3202
Experimental: as §1

[11] = test system: methicillin-resistant Staphylococcus aureus (MRSA) 63718; experiment: as above; type: cell-based; settings: clinical isolate MRSA 63718, 24 h, 37 °C
Experimental: as §1

Row | Compound | log k [1] | MIC [2] [µM] | lethal effect on THP-1 cells [3] | log k [4] | aromatic amino acids (AAA) fluorescence at 334 nm ([5]; c = 0.012-0.117 mmol/L, λex 275 nm) | chlorophyll a fluorescence emission band at 686 nm ([5]; c = 0.059-0.468 mmol/L, λex 436 nm) | MIC (M. smegmatis ATCC 700084) [µM] | MIC [6] [µM] | MIC (M. kansasii DSM 44162) [µM] | IC50 [7] [µM] | MIC [8] [µM] | MIC [9] [µM] | MIC [10] [µM] | MIC [11] [µM] | fold higher activity against M. marinum than isoniazid ([2]; ratio of MIC to isoniazid)
1 | O=C(c1cc(O)cc2ccccc12)N(c1ccccc1)c1ccccc1 [3-hydroxy-N-phenylnaphthalene-1-carboxanilide] | 0.6310 | – | – | – | – | – | – | – | – | – | – | – | – | – | –
2 | O=C(Nc1ccccc1)c1c(O)ccc2ccccc12 [Compound 1, 2-Hydroxy-N-phenylnaphthalene-1-carboxamide] | – | 60.7 (≈ 16 µg/mL) | did not lead to significant lethal effects | 1.3016 | strong decline | decreased intensity | 486 (≈ 128 µg/mL) | 950 (≈ 250 µg/mL) | 15.2 (≈ 4 µg/mL) | 28.9 | – | – | – | – | –
3 | O=C(Nc1ccccc1Br)c1c(O)ccc2ccccc12 [Compound 6a, N-(2-bromophenyl)-2-hydroxynaphthalene-1-carboxamide] | – | > 748 | – | 0.9509 | – | – | > 748 | 731 (≈ 250 µg/mL) | 93.5 (≈ 32 µg/mL) | 52.2 | > 748 | > 748 | > 748 | > 748 | –
4 | O=C(Nc1cccc(Br)c1)c1c(O)ccc2ccccc12 [Compound 6b, N-(3-bromophenyl)-2-hydroxynaphthalene-1-carboxamide] | – | > 748 | – | 0.8595 | – | – | > 748 | 731 (≈ 250 µg/mL) | 46.7 (≈ 16 µg/mL) | 61.1 | > 748 | > 748 | > 748 | > 748 | –
5 | O=C(Nc1ccc(Br)cc1)c1c(O)ccc2ccccc12 [Compound 6c, N-(4-bromophenyl)-2-hydroxynaphthalene-1-carboxamide] | – | 187 (≈ 64 µg/mL) | – | 0.8790 | – | – | 187 (≈ 64 µg/mL) | 175 (≈ 59.9 µg/mL) | 93.5 (≈ 32 µg/mL) | 102 | 47 (≈ 16.1 µg/mL) | 47 (≈ 16.1 µg/mL) | 94.1 (≈ 32.2 µg/mL) | 187 (≈ 64 µg/mL) | –
6 | O=C(Nc1ccc(C(F)(F)F)cc1)c1c(O)ccc2ccccc12 [Compound 7c, 2-Hydroxy-N-(4-trifluoromethylphenyl)naphthalene-1-carboxamide] | – | > 748 | – | 0.9994 | – | – | > 748 | 731 (≈ 242 µg/mL) | 23.3 (≈ 7.72 µg/mL) | 29 | > 748 | 94 (≈ 31.1 µg/mL) | 47 (≈ 15.6 µg/mL) | 94 (≈ 31.1 µg/mL) | –
7 | O=C(Nc1ccccc1[N+](=O)[O-])c1c(O)ccc2ccccc12 [Compound 8a, 2-Hydroxy-N-(2-nitrophenyl)naphthalene-1-carboxamide] | – | 104 (≈ 32.1 µg/mL) | did not lead to significant lethal effects | 0.8501 | – | – | – | 195 (≈ 60.1 µg/mL) | 51.9 (≈ 16 µg/mL) | 121 | – | 104 (≈ 32.1 µg/mL) | 52 (≈ 16 µg/mL) | – | –
8 | O=C(Nc1cccc([N+](=O)[O-])c1)c1c(O)ccc2ccccc12 [Compound 8b, 2-Hydroxy-N-(3-nitrophenyl)naphthalene-1-carboxamide] | – | ~52 (≈ 16 µg/mL) | did not lead to significant lethal effects | 0.9187 | – | – | – | 405 (≈ 125 µg/mL) | 104 (≈ 32.1 µg/mL) | 86.4 | – | – | – | – | about 9 fold
